Data: US10654851B2, “Deuterated 3-(4,5-substituted aminopyrimidine)phenyl derivatives and use thereof” (NANJING CHUANGTE PHARMACEUTICAL TECHNOLOGY CO., LTD, priority 2016, dated 2020)

Experiments:
EGFR wild type = target: T1, EGFR wild type (Homo sapiens, UniProt P00533); assay: HTRF kinase activity assay, EGFR wild type; assay type: biochemical; conditions: 10 μM ATP, read-out: In vitro enzymatic activity IC50, EGFR
T1 construct: purchased Invitrogen Corporation Shanghai Representative Office
Method: (§1) The above kinases were purchased from Invitrogen Corporation Shanghai Representative Office.
(§2) The reaction concentration of the compounds was three times diluted from 1000 nM for 9 concentrations. The concentration of DMSO in the reaction system was 2%. The enzyme and the compound were pre-incubated for 15 minutes, and then ATP and substrate were added to initiate the reaction. All enzyme catalyzed reactions were carried out at 25° C. for 60 minutes. […] Measure the HTRF fluorescence value with CLARIOstar (BMG LABTECH) after the incubation, and IC50 was determined using GraphPad Prism 5.0.

[1] = target: T2, Exon19 deletion EGFR in HCC827 cells (Homo sapiens, UniProt P00533, DEL746-750); assay: Exon19 deletion EGFR cell phosphorylation assay (HCC827); assay type: cell-based; conditions: 2 h incubation, read-out: Cell level EGFR phosphorylation IC50, HCC827 (EGFR del19)
T2 construct: Assayed the endogenous p-EGFR of the cell lysate; host or cells: HCC827
Method: Test 2: Exon19 Deletion EGFR (Activated Single Mutant) Cell Phosphorylation Assay
The human non-small cell lung cancer cell line HCC827 (Exon19 deletion EGFR, activated single mutant) was purchased from the cell bank of the Chinese Academy of Sciences. HCC827 was maintained in an RPMI1640 culture media containing 10% fetal bovine serum. The cells were grown at 37° C. in a humidified incubator containing 5% CO2. Assayed the endogenous p-EGFR of the cell lysate according to the Phospho-EGFR HTRF kit (Cisbio, No. #64HR1PEG). 100 μL of cells were added to a 96-well plate (50000 cells/well), and cultured overnight at 37° C. in a cell incubator with 5% CO2. 4-fold serial dilutions was added to the cells, the maximum concentration of the reaction being 10 μM. The culture solution was discarded after 2 hours' continuous incubation, lysate (25 μL/well) was added immediately, lyse the cells at room temperature for 10 minutes, then 12 μL/well of cells were added to a Greiner white small-volume 384-well plate, detection antibodies (Anti-phospho EGFR-d2 and Anti-EGFR-Tb) were added, and the cells were incubated at 25° C. for 60 minutes. The HTRF fluorescence value was measured with CLARIOstar (BMG LABTECH) after the incubation, and IC50 was determined using GraphPad Prism 5.0.

hERG potassium channels = target: T3, hERG potassium channels (Homo sapiens, UniProt Q12809); assay: hERG potassium channel whole cell patch clamp; assay type: cell-based; conditions: HEK293 cells stably expressing hERG, tail current, read-out: IC50 of inhibition on hERG potassium channels at cell level
T3 construct: expressed in transfected cells; host or cells: HEK293
Method: 3) Assay on the Effects of the Compounds on hERG Potassium Channels
HEK293 cells stably expressing an hERG channel were cultured in 35 mm culture dishes and placed in a 37° C./5% CO2 incubator for at least 24 hours before the experiment. The cell culture medium was DMEM containing 10% fetal bovine serum and 250 μg/mL G418.
The ingredients of the extracellular fluid used in the whole cell patch clamp experiment were (mM): NaCl, 137; KCl, 4; CaCl2, 1.8; MgCl2, 1; HEPES, 10; glucose 10; pH 7.4 (NaOH titration). All tested compounds and control compound solutions contained 0.3% DMSO. The intracellular fluid (mM) was: K Aspartate, 130; MgCl2, 5; EGTA 5; HEPES, 10; Tris-ATP 4; pH 7.2 (KOH titration).
One dish was taken out for each experiment, washed twice with the extracellular fluid, and placed on an inverted microscope stage. The whole cell patch clamp experiment was performed at room temperature with a tip resistance of 3 to 5 MΩ for a borosilicate glass microelectrode. After the whole cell recording mode, the membrane potential was clamped at −80 mV, gave a +50 mV depolarization voltage stimulation to the cells every 30 s and then repolarized to −50 mV for 3 s after 2 s to elicit hERG tail current. The cells were given a −50 mV repolarization voltage for 50 ms before the depolarization voltage stimulation, and the current recorded under this voltage was used as a baseline for calculating the hERG tail current. The hERG tail current was stably recorded for at least 3 minutes in the extracellular fluid before the addition of the compound. When the amplitude change of the hERG tail current was less than 5% after perfusion administration, it was considered that the drug action reached a steady state. Data was acquired and analyzed by a pCLAMP 10.1 software program. […] The inhibition rate of the tested compound to the hERG current was calculated according to the following equation: % inhibition rate={1−(remaining current amplitude)/(control current amplitude)}×100 […]

[2] = target: wild type EGFR in A431 cells (Homo sapiens, UniProt P00533); assay: EGFR wild type cell phosphorylation assay (A431)
Method: Test 1: EGFR Wild Type Cell Phosphorylation Assay
The human epidermoid carcinom cell line A431 expressed wild type EGFR and was purchased from the cell bank of the Chinese Academy of Sciences. A431 was maintained in an EMEM culture media containing 10% fetal bovine serum. The cells were grown at 37° C. in a humidified incubator containing 5% CO2. Endogenous p-EGFR in the cell lysate was assayed according to Phospho-EGFR HTRF kit (Cisbio, No. #64HR1PEG). Cells were plated (50000 cells/well) in a volume of 100 μL of complete media in 96-well cell culture plates and cultured at 37° C. with 5% CO2 overnight. 4-fold serial dilutions was added to the cells, the maximum concentration of the reaction being 10 μM. The cells were incubated continuously for 2 hours, 100 ng/well of EGF was added, incubated at 37° C. for 10 minutes, then the culture solution was discarded, lysis buffer (25 μL/well) was added immediately, lyse the cells at room temperature for 10 minutes, then 12 μL/well of the cell lysates were added to a Greiner white small-volume 384-well plate, detection antibodies (Anti-phospho EGFR-d2 and Anti-EGFR-Tb) were added, and the cells were incubated at 25° C. for 60 minutes. The HTRF fluorescence value was measured with CLARIOstar (BMG LABTECH) after the incubation, and IC50 was determined using GraphPad Prism 5.0.

[3] = target: EGFR (L858R) single mutant (Homo sapiens, UniProt P00533, L858R); assay: HTRF kinase activity assay, EGFR (L858R) single mutant
Method: as §1, §2

T3 sequence (Q12809 whole entry): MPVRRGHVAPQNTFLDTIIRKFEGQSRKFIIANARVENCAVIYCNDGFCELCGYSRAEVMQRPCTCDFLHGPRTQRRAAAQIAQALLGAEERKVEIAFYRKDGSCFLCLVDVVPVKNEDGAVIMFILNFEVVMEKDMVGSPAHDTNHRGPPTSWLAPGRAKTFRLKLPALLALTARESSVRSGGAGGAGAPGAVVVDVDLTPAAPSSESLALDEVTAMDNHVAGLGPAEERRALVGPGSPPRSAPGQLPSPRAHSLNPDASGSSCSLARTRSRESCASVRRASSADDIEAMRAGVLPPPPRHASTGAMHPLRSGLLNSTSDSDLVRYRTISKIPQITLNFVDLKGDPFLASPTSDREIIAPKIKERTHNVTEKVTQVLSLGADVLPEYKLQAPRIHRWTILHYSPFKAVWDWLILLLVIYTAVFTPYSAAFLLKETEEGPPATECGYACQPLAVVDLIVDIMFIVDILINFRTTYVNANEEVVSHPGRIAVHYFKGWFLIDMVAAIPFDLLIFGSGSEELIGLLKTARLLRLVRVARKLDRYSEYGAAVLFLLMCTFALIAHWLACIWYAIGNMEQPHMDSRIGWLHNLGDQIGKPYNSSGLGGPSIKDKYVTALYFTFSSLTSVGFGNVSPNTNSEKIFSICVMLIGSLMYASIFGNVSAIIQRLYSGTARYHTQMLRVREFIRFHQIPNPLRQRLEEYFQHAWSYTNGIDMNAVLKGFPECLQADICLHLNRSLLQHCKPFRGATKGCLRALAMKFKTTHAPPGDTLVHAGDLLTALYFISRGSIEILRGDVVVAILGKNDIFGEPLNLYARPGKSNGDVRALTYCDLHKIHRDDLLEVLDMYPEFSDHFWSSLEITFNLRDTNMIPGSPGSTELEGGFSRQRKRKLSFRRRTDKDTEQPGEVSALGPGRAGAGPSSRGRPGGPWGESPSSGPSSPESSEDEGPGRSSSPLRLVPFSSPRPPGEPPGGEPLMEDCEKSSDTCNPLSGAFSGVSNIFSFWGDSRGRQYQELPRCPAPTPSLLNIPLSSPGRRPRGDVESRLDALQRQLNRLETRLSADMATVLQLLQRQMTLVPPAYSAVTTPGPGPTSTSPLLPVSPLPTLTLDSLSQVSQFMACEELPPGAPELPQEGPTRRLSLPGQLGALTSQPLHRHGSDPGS
T2 sequence (P00533 with tags, fused parts or gaps DEL746-750): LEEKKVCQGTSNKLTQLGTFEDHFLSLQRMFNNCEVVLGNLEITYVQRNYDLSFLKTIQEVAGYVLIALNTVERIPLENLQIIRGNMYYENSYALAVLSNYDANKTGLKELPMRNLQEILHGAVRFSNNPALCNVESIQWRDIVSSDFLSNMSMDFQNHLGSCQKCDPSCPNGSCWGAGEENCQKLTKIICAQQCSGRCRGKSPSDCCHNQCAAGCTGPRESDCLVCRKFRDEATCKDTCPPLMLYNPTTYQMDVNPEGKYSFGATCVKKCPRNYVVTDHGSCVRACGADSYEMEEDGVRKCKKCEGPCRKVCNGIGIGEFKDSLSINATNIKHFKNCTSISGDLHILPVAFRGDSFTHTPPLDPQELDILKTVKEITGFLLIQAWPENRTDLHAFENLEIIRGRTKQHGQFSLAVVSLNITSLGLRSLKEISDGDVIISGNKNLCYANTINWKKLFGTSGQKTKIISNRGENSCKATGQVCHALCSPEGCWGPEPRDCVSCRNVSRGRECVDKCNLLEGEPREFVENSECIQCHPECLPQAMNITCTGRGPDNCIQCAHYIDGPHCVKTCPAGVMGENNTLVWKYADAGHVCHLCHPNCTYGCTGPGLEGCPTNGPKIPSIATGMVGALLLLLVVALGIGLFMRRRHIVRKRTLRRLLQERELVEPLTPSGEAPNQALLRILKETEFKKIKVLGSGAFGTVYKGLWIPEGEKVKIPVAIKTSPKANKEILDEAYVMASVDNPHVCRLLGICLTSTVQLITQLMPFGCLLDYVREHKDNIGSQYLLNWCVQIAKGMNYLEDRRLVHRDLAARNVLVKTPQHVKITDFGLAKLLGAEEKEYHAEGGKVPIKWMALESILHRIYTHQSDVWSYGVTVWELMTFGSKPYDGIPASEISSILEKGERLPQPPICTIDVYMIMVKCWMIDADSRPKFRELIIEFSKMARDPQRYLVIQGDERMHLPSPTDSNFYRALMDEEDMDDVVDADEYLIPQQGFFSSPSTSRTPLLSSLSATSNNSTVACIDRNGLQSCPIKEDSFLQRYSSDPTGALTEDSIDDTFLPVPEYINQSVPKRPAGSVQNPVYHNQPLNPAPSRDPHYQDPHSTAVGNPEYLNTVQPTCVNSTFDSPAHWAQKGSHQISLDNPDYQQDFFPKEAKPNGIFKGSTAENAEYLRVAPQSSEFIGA
Chain of wild type EGFR in A431 cells (P00533 25-1210): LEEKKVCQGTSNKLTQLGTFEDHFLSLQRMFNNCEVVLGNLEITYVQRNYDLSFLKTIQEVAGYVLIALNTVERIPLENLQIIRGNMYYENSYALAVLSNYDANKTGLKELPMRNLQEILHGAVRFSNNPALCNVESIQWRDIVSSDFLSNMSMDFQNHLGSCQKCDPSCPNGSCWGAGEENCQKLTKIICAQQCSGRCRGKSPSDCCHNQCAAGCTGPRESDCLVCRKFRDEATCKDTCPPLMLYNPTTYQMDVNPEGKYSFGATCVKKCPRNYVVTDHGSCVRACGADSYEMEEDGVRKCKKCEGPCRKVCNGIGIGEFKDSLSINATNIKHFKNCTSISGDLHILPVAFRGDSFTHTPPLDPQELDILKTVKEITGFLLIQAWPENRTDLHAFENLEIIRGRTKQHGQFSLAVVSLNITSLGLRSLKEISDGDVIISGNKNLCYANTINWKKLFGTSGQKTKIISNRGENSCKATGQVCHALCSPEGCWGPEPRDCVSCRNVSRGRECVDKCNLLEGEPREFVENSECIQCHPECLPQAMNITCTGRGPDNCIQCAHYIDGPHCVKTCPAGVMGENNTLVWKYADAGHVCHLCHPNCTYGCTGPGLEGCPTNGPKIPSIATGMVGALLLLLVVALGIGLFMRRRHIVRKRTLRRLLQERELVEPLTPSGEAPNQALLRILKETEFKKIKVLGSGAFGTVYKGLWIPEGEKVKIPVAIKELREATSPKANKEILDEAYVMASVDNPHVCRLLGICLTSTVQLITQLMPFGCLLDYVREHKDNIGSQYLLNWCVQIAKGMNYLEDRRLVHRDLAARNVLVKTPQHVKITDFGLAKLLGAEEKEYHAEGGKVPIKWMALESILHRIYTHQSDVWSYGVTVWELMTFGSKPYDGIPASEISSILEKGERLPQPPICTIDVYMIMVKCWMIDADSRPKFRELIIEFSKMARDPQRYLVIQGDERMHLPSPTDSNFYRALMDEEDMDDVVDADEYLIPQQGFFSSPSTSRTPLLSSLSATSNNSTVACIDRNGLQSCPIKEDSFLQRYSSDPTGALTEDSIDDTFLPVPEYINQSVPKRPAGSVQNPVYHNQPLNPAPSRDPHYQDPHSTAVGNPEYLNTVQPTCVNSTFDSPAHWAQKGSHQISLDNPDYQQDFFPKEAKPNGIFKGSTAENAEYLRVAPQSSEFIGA
T1 sequence (P00533 25-1210): as above

Compound | IC50 (EGFR wild type) [nM] | IC50 [1] [nM] | IC50 (hERG potassium channels) [nM] | IC50 [2] [nM] | IC50 [3] [nM]
[2H]C([2H])([2H])N(CCN(C)c1cc(OC)c(Nc2nccc(-c3cn4c5c(cccc35)CCC4)n2)cc1NC(=O)C=C)C([2H])([2H])[2H] [Compound 16] | 27 | 103 | 2670 | 732 | 11.6
[2H]C([2H])([2H])NCCN(C)c1cc(OC)c(Nc2nccc(-c3cn4c5c(cccc35)CCC4)n2)cc1NC(=O)C=C [Compound 34] | 35.4 | – | – | – | 14.1
[2H]C([2H])([2H])N(C)CCN(C)c1cc(OC)c(Nc2nccc(-c3cn4c5c(cccc35)CCC4)n2)cc1NC(=O)C=C [Compound 11] | 38 | 101 | 1850 | 730 | 11.5
[2H]C([2H])([2H])N(CCN(C)C)c1cc(OC)c(Nc2nccc(-c3cn4c5c(cccc35)CCC4)n2)cc1NC(=O)C=C [Compound 24] | 15.7 | 78.1 | 1970 | 520 | 8.99
